The text below walks through data of patent publication US20180207078A1, “COMBINATION OF NATURAL SUBSTANCES COMPRISING AT LEAST ONE […] ACID AND AT LEAST ONE GUGGULSTERONE, AND USE THEREOF FOR COSMETIC APPLICATIONS” (OntoChem, GmbH, priority 2015, published 2018).

In one series the test system is 3T3-L1 mouse fibroblasts. Description: Nile red assay of cellular lipid content during adipogenesis. The class given is cell-based. As to conditions: for Lipid content: treatment D0-D2, read on D6, stimulated untreated cells = 100%, unstimulated = 0%; for IC50: Mus musculus, 3T3-L1, 144 h, treatment for the entire 6-day adipocyte differentiation (D0-D6), read-out: IC50 value for the inhibition of cellular lipid accumulation. As to the method:
The 3T3-L1 mouse fibroblasts were cultivated in Dulbecco's modified Eagle's medium (DMEM) incl. 10% foetal calf serum (FCS) and 2 mM L-glutamine at 37° C., 95% humidity and 5% CO2.
Adipocyte differentiation and maturation was induced as described (Yang J. Y. et al., Obesity 2008, 16, 16-22; Shugart E. C. and Umek R. M., Cell Growth & Differentiation 1997, 8, 1091-1098). The cells were stimulated not only with dexamethasone, as is generally conventional, but also with cortisol, which is more physiological.
The cells were seeded into 96-well plates and cultivated to confluence. Two days after reaching cell confluence (D0=day 0), cell differentiation was induced by adding DMEM with 10% FCS, 167 nM insulin, […] and 1 μM dexamethasone or 200 nM cortisol for two days (D2). The cells were then cultivated for a further two days in DMEM with 10% FCS and 167 nM insulin (D4), followed by cultivation in DMEM/10% FCS for a further four days (D8). Ultimately, >20-30% of the cells were mature adipocytes with accumulated lipid stores.
As an indicator for the degree of adipogenesis, the lipid content of the cells (intracellular lipid droplets) was detected by means of the lipophilic colour reagent Nile red, as described (Yang J. Y. et al., Obesity 2008, 16, 16-22; Greenspan P., The Journal of Cell Biology 1985, 100, 965-973). 3T3-L1 cells (5,000-10,000 cells/well), after reaching confluence, were cultivated for a further two days in 96-well plates (D0). The cells were then treated with guggulsterone and/or glycyrrhetinic acid, individually or in combination, for days D0-D2, D2-D4, D4-D6 and D0-D6 of the adipogenesis (concentration range: 1-200 μM). The medium, with or without test substance(s), was changed or renewed every two days. Cells treated as follows served as controls: (1) pure cell culture medium (undifferentiated control), (2) pure differentiation medium (untreated control), and (3) DMSO, corresponding to the highest DMSO concentration in the test batches, in differentiation medium (DMSO control).
On day 6 (D6), the intracellular lipid accumulation (lipid droplets) was quantified by means of a Nile red assay. To that end, the cell medium was discarded and the cells were washed with 100 μl/well of PBS (pH 7.4). The cells were then incubated for 20 minutes at room temperature with 50 μl/well of Nile red in PBS (10 μg/ml). The lipid content was determined fluorometrically using a Synergy 2 plate reader (BioTek, Winooski, USA) (excitation: 485 nm, emission: 560 nm, mirror: 550 nm). Nile red selectively stains neutral lipids, for example triacylglycerides in intracellular droplets.
The lipid content, that is to say the storage of triacylglycerides in intracellular lipid droplets, is an indicator for the degree of adipogenesis. […] Since the staining reagent Nile red, upon excitation at 485 nm and fluorescence detection at 560 nm, is very selective for neutral lipids, it was thus possible specifically to measure the intracellular accumulation of triacylglycerides during advancing adipogenesis.
On day 6 of the adipogenesis (D6), the accumulation of intracellular lipid droplets was measured fluorometrically by means of a Nile red assay (excitation: 485 nm; emission: 560 nm; 550 nm mirror). The data were normalised and the lipid accumulation is given in percent; unstimulated cells were used as 0% reference, and stimulated but untreated cells were used as 100% reference.

Another series relates to mature 3T3 adipocytes. Description: Resazurin-based cell viability assay. Also noted: species or system mouse. The conditions noted are these: up to 250 μM, 24-hour treatment, 1 μM dexamethasone stimulation. As to the method:
(§1) The cell viability of mature adipocytes after treatment with a test compound was measured by means of a fluorimetric Resazurin-based assay. Vital, that is to say metabolically active, cells are capable of converting Resazurin into the fluorescent derivative Resorufin (Strotmann U. J. et al., Ecotox. Environ. Safety 1993, 25, 79-89). 3T3-L1 cells were seeded into 96-well plates (5,000-10,000 cells/well) and, as described above, cultivated to maturity (D8). […] Cells treated as follows served as controls: (1) pure cell culture medium (undifferentiated control), (2) pure differentiation medium (untreated control), (3) DMSO, corresponding to the highest DMSO concentration in the test batches, in differentiation medium (DMSO control), and (4) 150 μg/ml digitonin in DMEM (cell death control). After 24 hours, the incubation medium was discarded and the cells were washed with 100 μl/well of DMEM and then incubated for 2 hours under standard culture conditions with 50 μl/well of Resazurin solution (60 μM in DMEM). Finally, the Resorufin fluorescence was detected by means of a Synergy 2 plate reader (BioTek, Winooski, USA) (excitation: 540 nm, emission: 590 nm, mirror: 550 nm). […] Finally, the cell viability, as a measure of the number and fitness of the cells, was measured by means of a Resazurin assay.
In general terms: Alamar Blue is a resazurin reagent that responds to reducing activity.

Another series deals with caspases 3/7. Briefly: Caspase-Glo 3/7 apoptosis assay in mature adipocytes. Format: cell-based, mouse. The conditions noted are these: 24 hours. As to the method:
In order to evaluate a possible induction of apoptosis in mature adipocytes as a result of the treatment with (Z)-guggulsterone and/or glycyrrhetinic acid, a Caspase-Glo® 3/7 assay kit (Promega, Mannheim, Germany) was used.
3T3-L1 cells were seeded into 96-well plates (5,000-10,000 cells/well) and, as described above, cultivated to maturity (D8). On D8, the mature adipocytes were incubated for 24 hours under standard culture conditions with guggulsterone and/or glycyrrhetinic acid (1-250 μM). Cells treated as follows served as controls: (1) pure cell culture medium (undifferentiated control), (2) pure differentiation medium (untreated control), and (3) DMSO, corresponding to the highest DMSO concentration in the test batches, in differentiation medium (DMSO control). After 24 hours, the incubation medium was discarded, the cells were washed with 100 μl/well of DMEM, and then 150 μl/well of Caspase-Glo® 3/7 reagent in DMEM (1:1, v/v) were added. After incubation for 2 hours at room temperature, the luminescence signal of the reagent was detected by means of a Synergy 2 plate reader (BioTek, Winooski, USA).
The combination of 250 μM of each of the two compounds brought about an increase in caspase 3/7 activity by a factor of 3.5-4.0 as compared with untreated cells (FIG. 2).

The next series relates to 3T3 pre-adipocytes. Briefly: Fluorescence microscopy of lipid droplets (Nile red/DAPI). The class given is cell-based, mouse. As to conditions: 100 μM, D0-D6, stimulation with 1 μM dexamethasone. As to the method:
[…] The incubation medium was then discarded and the cells were washed with PBS and stained with Nile red (10 μg/ml) and DAPI (1 μg/ml) in 50 μl/well of PBS for 20 minutes at room temperature. After removal of the staining solution, the cells were washed with PBS and fixed with 4% paraformaldehyde in PBS for 30 minutes at room temperature. Finally, the cells were washed three times with PBS and mounted on the object slide by means of Fluorescence Mounting Medium (Dako, Carpinteria, USA). The fluorescence microscopy images were taken by using a Zeiss Axio Observer.Z1 with ApoTome (Carl Zeiss Microlmaging, Jena, Germany) using the DAPI and GFP filter settings.

The conditions of series [1]: cited from earlier work.
A short description of series [2]: Resazurin-based cell viability assay. Also noted: species or system mouse. As to conditions: mouse, mature 3T3-L1 adipocytes; 250 μM (of each compound), 24-hour treatment, 1 μM dexamethasone stimulation; read-out: reduction of cell viability (number of mature adipocytes). As to the method: as §1

One may read the IC50 as the concentration that gives 50% inhibition. For `C/C=C1\C(=O)C[C@H]2[C@@H]3CCC4=CC(=O)CC[C@]4(C)[C@H]3CC[C@]12C` [(Z)-guggulsterone], the Lipid content in the series with 3T3-L1 mouse fibroblasts (10 μM) turned out to be 71%; with 3T3-L1 mouse fibroblasts (40 μM), 26%; in the series on 3T3-L1 mouse fibroblasts (100 μM), 5%. In addition, the IC50 with 3T3-L1 mouse fibroblasts is roughly 5 µM. Further, in the series on mature 3T3 adipocytes, the “effect on cell viability” value is “did not impair the cell viability”. Moreover, the “induction of caspases 3/7” value in the series on caspases 3/7 (dexamethasone or cortisol stimulation) was “no induction of caspases 3/7”. For the same molecule, in the series with 3T3 pre-adipocytes, the “lipid droplets versus stimulated untreated cells” value was “significantly fewer and smaller lipid droplets”.

As to guggulsterone, the “systemic administration that is not safe” value in series [1] is “more than 30 mg/day”.

Consider `CC1(C)[C@@H](O)CC[C@]2(C)[C@H]3C(=O)C=C4[C@@H]5C[C@@](C)(C(=O)O)CC[C@]5(C)CC[C@@]4(C)[C@]3(C)CC[C@@H]12` [18β-glycyrrhetinic acid], for which the Lipid content was 98% with 3T3-L1 mouse fibroblasts (10 μM), 91% with 3T3-L1 mouse fibroblasts (40 μM) and 7% in the series with 3T3-L1 mouse fibroblasts (100 μM). Moreover, the IC50 in the series with 3T3-L1 mouse fibroblasts is roughly 20 µM. Also, in series [2], the cytotoxicity at 24 h, 250 μM is 28%. Further, the “increase in caspase 3/7 activity as compared with untreated cells” value with caspases 3/7 (250 μM (of each compound)) is listed as 2.5-3.0 factor. Further, in the series with 3T3 pre-adipocytes, the “lipid droplets versus stimulated untreated cells” value was “significantly fewer and smaller lipid droplets”.
